{"source": "patent US8269007B2", "about": "“Crystalline form II of 7-(dimethoxy-methyl) camptothecin, its use as intermediate and products obtained therefrom” (Sigma-Tau Industrie Farmaceutiche Riunite SpA, priority 2007, dated 2012)", "assay": "Thermal behaviour (TGA melting range apparatus Mettler TG 50, confirmed by DSC Mettler DSC 30)", "details": "for decomposition temperature: heat ramp 20° C./min (TGA/DSC)", "data": [{"compound": "CC[C@@]1(O)C(=O)OCc2c1cc1n(c2=O)Cc2c-1nc1ccccc1c2C(OC)OC", "note": "[Form II, (4S)-11-(dimethoxymethyl)-4-ethyl-4-hydroxy-1H-pyrano[3′,4′:6,7]indolizino[1,2-b]quinoline-3,14(4H,12H)-dione]", "values": [{"measurement": "decomposition temperature", "value": 173.56, "unit": "°C"}]}, {"compound": "CC[C@@]1(O)C(=O)OCc2c1cc1n(c2=O)Cc2c-1nc1ccccc1c2C(OC)OC", "note": "[Form I, 7-(dimethoxy-methyl)camptothecin]", "values": [{"measurement": "thermal stability of one crystal form compared with the other", "setting": "FT-IR, powder x-ray and TGA / DSC-TGA comparison of Form I and Form II", "value": "less stable"}, {"measurement": "decomposition temperature", "setting": "listed as 7-(dimethoxy-methyl)camptothecin form I", "value": 123.38, "unit": "°C"}, {"measurement": "decomposition temperature", "setting": "listed as form I", "value": 123.38, "unit": "°C"}]}]}
